Laboratory results published in patent publication US20180170904A1, “PYRIDIN-3-YL ACETIC ACID DERIVATIVES AS INHIBITORS OF HUMAN IMMUNODEFICIENCY VIRUS REPLICATION” (priority 2015, published 2018).

What follows are compounds tested on NL-RLuc virus (recombinant NL4-3 proviral clone with Renilla Luciferase gene) (assay: Inhibition of HIV replication (NL-RLuc reporter virus in MT-2 cells)). Settings: Renilla, NL43, 120 h, read-out: Activity.
Format: cell-based
Excerpt: Inhibition of HIV replication: A recombinant NL-RLuc proviral clone was constructed in which a section of the nef gene from NL4-3 was replaced with the Renilla Luciferase gene. This virus is fully infectious and can undergo multiple cycles of replication in cell culture. In addition, the luciferous reporter provides a simple and easy method for quantitating the extent of virus growth and consequently, the antiviral activity of test compounds. The plasmid pNLRLuc contains the proviral NL-Rluc DNA cloned into pUC18 at the PvuII site. The NL-RLuc virus was prepared by transfection of 293T cells with the plasmid pNLRLuc. Transfections were performed using the LipofectAMINE PLUS kit from Invitrogen (Carlsbad, Calif.) according to the manufacturer and the virus generated was titered in MT-2 cells. For susceptibility analyses, the titrated virus was used to infect MT-2 cells in the presence of compound, and after 5 days of incubation, cells were processed and quantitated for virus growth by the amount of expressed luciferase. Assay media was RPMI 1640 supplemented with 10% heat inactivated fetal bovine serum (FBS), 100 units/ml penicillin G/100 units/ml streptomycin, 10 mM HEPES buffer pH 7.55 and 2 mM L-glutamine. The results from at least 2 experiments were used to calculate the EC50 values. Luciferase was quantitated using the Dual Luciferase kit from Promega (Madison, Wis.). Susceptibility of viruses to compounds was determined by incubation in the presence of serial dilutions of the compound. The 50% effective concentration (EC50) was calculated by using the exponential form of the median effect equation where (Fa)=1/[1+(ED50/drug conc.)^m] (Johnson V A, Byington R T. Infectivity Assay. In Techniques in HIV Research. ed. Aldovini A, Walker B D. 71-76. New York: Stockton Press.1990). Activity equal to A refers to a compound having an EC50≤100 nM, while B and C denote compounds having an EC50 between 100 nM and 1 uM (B) or >1 uM (C).

Compound	EC50
Cc1nc(C)c([C@H](OC(C)(C)C)C(=O)O)c(N2CCC(C)(C)CC2)c1-c1ccc(CC#N)cc1 [Example 48, (S)-2-(tert-Butoxy)-2-(5-(4-(cyanomethyl)phenyl)-4-(4,4-dimethylpiperidin-1-yl)-2,6-dimethylpyridin-3-yl)acetic acid]	0.1 to 1 µM
Cc1nc(C)c([C@H](OC(C)(C)C)C(=O)O)c(N2CCC(C)(C)CC2)c1-c1ccc(/C=C/C#N)cc1 [Example 49, (S,E)-2-(tert-Butoxy)-2-(5-(4-(2-cyanovinyl)phenyl)-4-(4,4-dimethylpiperidin-1-yl)-2,6-dimethylpyridin-3-yl)acetic acid]	0.1 to 1 µM
Cc1nc(C)c([C@H](OC(C)(C)C)C(=O)O)c(N2CCC(C)(C)CC2)c1-c1ccc(C(=O)CCc2ccc(F)cc2)cc1 [Example 50, (S)-2-(tert-Butoxy)-2-(4-(4,4-dimethylpiperidin-1-yl)-5-(4-(3-(4-fluorophenyl)propanoyl)phenyl)-2,6-dimethylpyridin-3-yl)acetic acid]	< 0.1 µM
Cc1nc(C)c([C@H](OC(C)(C)C)C(=O)O)c(N2CCC(C)(C)CC2)c1-c1ccc(C(O)CCc2ccc(F)cc2)cc1 (stereo partly drawn) [Example 51, (2S)-2-(tert-Butoxy)-2-(4-(4,4-dimethylpiperidin-1-yl)-5-(4-(3-(4-fluorophenyl)-1-hydroxypropyl)phenyl)-2,6-dimethylpyridin-3-yl)acetic acid]	< 0.1 µM
Cc1nc(C)c([C@H](OC(C)(C)C)C(=O)O)c(N2CCC(C)(C)CC2)c1-c1ccc(CCCc2ccc(F)cc2)cc1 [Example 52, (S)-2-(tert-Butoxy)-2-(4-(4,4-dimethylpiperidin-1-yl)-5-(4-(3-(4-fluorophenyl)propyl)phenyl)-2,6-dimethylpyridin-3-yl)acetic acid]	< 0.1 µM
Cc1nc(C)c([C@H](OC(C)(C)C)C(=O)O)c(N2CC(C)CC(C)C2)c1-c1ccc(C(=O)NCc2ccccc2)cc1 (some centres unmarked) [Example 53]	0.1 to 1 µM
Cc1nc(C)c([C@H](OC(C)(C)C)C(=O)O)c(N2CCC(C(F)(F)F)CC2)c1-c1ccc(C(=O)NCc2ccccc2)cc1 [Example 54, (S)-2-(5-(4-(Benzylcarbamoyl)phenyl)-2,6-dimethyl-4-(4-(trifluoromethyl)piperidin-1-yl)pyridin-3-yl)-2-(tert-butoxy)acetic acid]	< 0.1 µM
Cc1nc(C)c([C@H](OC(C)(C)C)C(=O)O)c(N2CCC(C3CC3)C2)c1-c1ccc(C(=O)NCc2ccccc2)cc1 (stereo partly drawn) [Example 55, (2S)-2-(5-(4-(Benzylcarbamoyl)phenyl)-4-(3-cyclopropylpyrrolidin-1-yl)-2,6-dimethylpyridin-3-yl)-2-(tert-butoxy)acetic acid]	< 0.1 µM
CCC1(C)CCN(c2c(-c3ccc(C(=O)NCc4ccccc4)cc3)c(C)nc(C)c2[C@H](OC(C)(C)C)C(=O)O)CC1 [Example 56, (S)-2-(5-(4-(Benzylcarbamoyl)phenyl)-4-(4-ethyl-4-methylpiperidin-1-yl)-2,6-dimethylpyridin-3-yl)-2-(tert-butoxy)acetic acid]	< 0.1 µM
Cc1nc(C)c([C@H](OC(C)(C)C)C(=O)O)c(N2CC(C)(C)C2)c1-c1ccc(C(=O)NCc2ccccc2)cc1 [Example 57, (S)-2-(5-(4-(Benzylcarbamoyl)phenyl)-4-(3,3-dimethylazetidin-1-yl)-2,6-dimethylpyridin-3-yl)-2-(tert-butoxy)acetic acid]	> 1 µM
Cc1nc(C)c([C@H](OC(C)(C)C)C(=O)O)c(N2CCC(C)CC2)c1-c1ccc(C(=O)NCc2ccccc2)cc1 [Example 58, (S)-2-(5-(4-(Benzylcarbamoyl)phenyl)-2,6-dimethyl-4-(4-methylpiperidin-1-yl)pyridin-3-yl)-2-(tert-butoxy)acetic acid]	< 0.1 µM
Cc1nc(C)c([C@H](OC(C)(C)C)C(=O)O)c(N2CC(C(C)C)C2)c1-c1ccc(C(=O)NCc2ccccc2)cc1 [Example 59, (S)-2-(5-(4-(Benzylcarbamoyl)phenyl)-4-(3-isopropylazetidin-1-yl)-2,6-dimethylpyridin-3-yl)-2-(tert-butoxy)acetic acid]	> 1 µM
COC1(C)CCN(c2c(-c3ccc(C(=O)NCc4ccccc4)cc3)c(C)nc(C)c2[C@H](OC(C)(C)C)C(=O)O)CC1 [Example 60, (S)-2-(5-(4-(Benzylcarbamoyl)phenyl)-4-(4-methoxy-4-methylpiperidin-1-yl)-2,6-dimethylpyridin-3-yl)-2-(tert-butoxy)acetic acid]	< 0.1 µM
Cc1nc(C)c([C@H](OC(C)(C)C)C(=O)O)c(N2CCC(C)(C#N)CC2)c1-c1ccc(C(=O)NCc2ccccc2)cc1 [Example 61, (S)-2-(5-(4-(Benzylcarbamoyl)phenyl)-4-(4-cyano-4-methylpiperidin-1-yl)-2,6-dimethylpyridin-3-yl)-2-(tert-butoxy)acetic acid]	0.1 to 1 µM
Cc1nc(C)c([C@H](OC(C)(C)C)C(=O)O)c(N2CCC(c3ccccc3)CC2)c1-c1ccc(C(=O)NCc2ccccc2)cc1 [Example 62, (S)-2-(5-(4-(Benzylcarbamoyl)phenyl)-2,6-dimethyl-4-(4-phenylpiperidin-1-yl)pyridin-3-yl)-2-(tert-butoxy)acetic acid]	> 1 µM
CC(C)=C1CCN(c2c(-c3ccc(C(=O)NCc4ccccc4)cc3)c(C)nc(C)c2[C@H](OC(C)(C)C)C(=O)O)CC1 [Example 63, (S)-2-(5-(4-(Benzylcarbamoyl)phenyl)-2,6-dimethyl-4-(4-(propan-2-ylidene)piperidin-1-yl)pyridin-3-yl)-2-(tert-butoxy)acetic acid]	0.1 to 1 µM
Cc1nc(C)c([C@H](OC(C)(C)C)C(=O)O)c(N2CCC(Cc3ccccc3)CC2)c1-c1ccc(C(=O)NCc2ccccc2)cc1 [Example 64, (S)-2-(5-(4-(Benzylcarbamoyl)phenyl)-4-(4-benzylpiperidin-1-yl)-2,6-dimethylpyridin-3-yl)-2-(tert-butoxy)acetic acid]	0.1 to 1 µM
Cc1nc(C)c([C@H](OC(C)(C)C)C(=O)O)c(N2CCC(C)(F)CC2)c1-c1ccc(C(=O)NCc2ccccc2)cc1 [Example 65, (S)-2-(5-(4-(Benzylcarbamoyl)phenyl)-4-(4-fluoro-4-methylpiperidin-1-yl)-2,6-dimethylpyridin-3-yl)-2-(tert-butoxy)acetic acid]	< 0.1 µM
Cc1nc(C)c([C@H](OC(C)(C)C)C(=O)O)c(N2CCC(C)(C)CC2)c1-c1ccc(C(=O)NCc2ccccn2)cc1 [Example 66, (S)-2-(tert-Butoxy)-2-(4-(4,4-dimethylpiperidin-1-yl)-2,6-dimethyl-5-(4-((pyridin-2-ylmethyl)carbamoyl)phenyl)pyridin-3-yl)acetic acid]	< 0.1 µM
CCOc1cc(F)cc(F)c1CNC(=O)c1ccc(-c2c(C)nc(C)c([C@H](OC(C)(C)C)C(=O)O)c2N2CCC(C)(C)CC2)cc1 [Example 67, (S)-2-(tert-Butoxy)-2-(4-(4,4-dimethylpiperidin-1-yl)-5-(4-((2-ethoxy-4,6-difluorobenzyl)carbamoyl)phenyl)-2,6-dimethylpyridin-3-yl)acetic acid]	< 0.1 µM
Cc1nc(C)c([C@H](OC(C)(C)C)C(=O)O)c(N2CCC(C)(C)CC2)c1-c1ccc(C(=O)NCc2c(F)cc(F)cc2F)cc1 [Example 69, (S)-2-(tert-Butoxy)-2-(4-(4,4-dimethylpiperidin-1-yl)-2,6-dimethyl-5-(4-((2,4,6-trifluorobenzyl)carbamoyl)phenyl)pyridin-3-yl)acetic acid]	< 0.1 µM
Cc1nc(C)c([C@H](OC(C)(C)C)C(=O)O)c(N2CCC(C)(C)CC2)c1-c1ccc(N)cc1 [Example 70, (S)-2-(5-(4-Aminophenyl)-4-(4,4-dimethylpiperidin-1-yl)-2,6-dimethylpyridin-3-yl)-2-(tert-butoxy)acetic acid]	0.1 to 1 µM
CCOC(=O)Nc1ccc(-c2c(C)nc(C)c([C@H](OC(C)(C)C)C(=O)O)c2N2CCC(C)(C)CC2)cc1 [Example 71, (S)-2-(tert-Butoxy)-2-(4-(4,4-dimethylpiperidin-1-yl)-5-(4-((ethoxycarbonyl)amino)phenyl)-2,6-dimethylpyridin-3-yl)acetic acid]	< 0.1 µM
Cc1nc(C)c([C@H](OC(C)(C)C)C(=O)O)c(N2CCC(C)(C)CC2)c1-c1ccc(NC(=O)Cc2ccc(F)cc2)cc1 [Example 72, (S)-2-(tert-Butoxy)-2-(4-(4,4-dimethylpiperidin-1-yl)-5-(4-(2-(4-fluorophenyl)acetamido)phenyl)-2,6-dimethylpyridin-3-yl)acetic acid]	< 0.1 µM
Cc1nc(C)c([C@H](OC(C)(C)C)C(=O)O)c(N2CCC(C)(C)CC2)c1-c1ccc(NCCc2ccc(F)cc2)cc1 [Example 73, (S)-2-(tert-Butoxy)-2-(4-(4,4-dimethylpiperidin-1-yl)-5-(4-((4-fluorophenethyl)amino)phenyl)-2,6-dimethylpyridin-3-yl)acetic acid]	< 0.1 µM

Same assay, conditions: Renilla, NL43, 120 h, read-out: EC50 μM

Compound	EC50
Cc1nc(C)c([C@H](OC(C)(C)C)C(=O)O)c(N2CCC(C)(C)CC2)c1-c1ccc(CC#N)cc1 [Example 48, (S)-2-(tert-Butoxy)-2-(5-(4-(cyanomethyl)phenyl)-4-(4,4-dimethylpiperidin-1-yl)-2,6-dimethylpyridin-3-yl)acetic acid]	0.109 µM
Cc1nc(C)c([C@H](OC(C)(C)C)C(=O)O)c(N2CCC(C3CC3)C2)c1-c1ccc(C(=O)NCc2ccccc2)cc1 (stereo partly drawn) [Example 55, (2S)-2-(5-(4-(Benzylcarbamoyl)phenyl)-4-(3-cyclopropylpyrrolidin-1-yl)-2,6-dimethylpyridin-3-yl)-2-(tert-butoxy)acetic acid]	0.053 µM
Cc1nc(C)c([C@H](OC(C)(C)C)C(=O)O)c(N2CC(C)(C)C2)c1-c1ccc(C(=O)NCc2ccccc2)cc1 [Example 57, (S)-2-(5-(4-(Benzylcarbamoyl)phenyl)-4-(3,3-dimethylazetidin-1-yl)-2,6-dimethylpyridin-3-yl)-2-(tert-butoxy)acetic acid]	2.54 µM
Cc1nc(C)c([C@H](OC(C)(C)C)C(=O)O)c(N2CCC(C)(C)CC2)c1-c1ccc(C(=O)NCc2c(F)cc(F)cc2F)cc1 [Example 69, (S)-2-(tert-Butoxy)-2-(4-(4,4-dimethylpiperidin-1-yl)-2,6-dimethyl-5-(4-((2,4,6-trifluorobenzyl)carbamoyl)phenyl)pyridin-3-yl)acetic acid]	0.004 µM
